Literature values, collected in US6476058B2 (Isotechnika, Inc., priority 1998, dated 2002).

Experiments:
[1] = test system: patients with chronic stable angina
[2] = in vivo
human = details: racemic mixture administered to a human

For `CCOC(=O)C1=C(COCCN)NC(C)=C(C(=O)OC)C1c1ccccc1Cl` (racemic) [amlodipine, (R.S.) 3-ethyl-5-1-methyl-2-(2-aminoethoxymethyl)-4-(2-chlorophenyl)-1,4-dihydro-6-methyl-3,5-pyridinedicarboxylate], the “reduction in blood pressures” value [1] is given as 4/1, the serum calcium concentration [2] is given as “not affected” and the adverse effects (human) is given as “headache and edema, dizziness, flushing, palpitation, fatigue, nausea, abdominal pain and somnolence”. The “metabolites excreted in the urine” value (in vivo) was 60%, the “parent compound excreted in the urine” value (in vivo) was 10% and the “bioavailability in the presence of food” value (oral, food) was “not altered”. The “influence of renal impairment on pharmacokinetics” value (renal impairment) was “not significantly influenced”.
